Results from the NIST ThermoML archive (doi:10.1021/acs.jced.7b00904).
± gives the expanded uncertainty stated by the source.

Assays:
[1] = refractive index (Na D-line) (dimensionless); wn = mass fraction of the nth substance listed; details: 101.3 kPa, Liquid, Standard Abbe refractometry
[2] = wn = mass fraction of the nth substance listed; details: 295 K, w2 = 0

O [water] + N#C[S-].[K+]
[1], w2 = 0
Details	refractive index
293 K	1.3333 ± 0.00058
298 K	1.3326 ± 0.00058
303 K	1.3321 ± 0.00058
308 K	1.33165 ± 0.00058
313 K	1.33085 ± 0.00058

Details	surface tension liquid-gas [mN/m]
[2], Wilhelmi plate	72.28 ± 0.4

[2], 101.3 kPa, Liquid
Details	mass density [kg/m3]	viscosity [mPa·s]
Buoyancy - hydrostatic balance	999 ± 6	–
Concentric cylinders viscometry	–	0.975 ± 0.07

[I-].[Na+] [sodium iodide] + O
refractive index, [1]
Details	296 K	298 K
w1 = 0.332	1.3939 ± 0.00059	–
w1 = 0.359	1.40055 ± 0.00059	–
w1 = 0.374	1.4045 ± 0.00059	–
w1 = 0.39	1.40905 ± 0.00059	–
w1 = 0.408	1.41365 ± 0.0007	–
w1 = 0.427	1.4193 ± 0.00061	–
w1 = 0.449	1.426 ± 0.0006	–
w1 = 0.46	1.4295 ± 0.00059	–
w1 = 0.472	1.43335 ± 0.00059	–
w1 = 0.485	1.4376 ± 0.00058	–
w1 = 0.498	1.4421 ± 0.00058	1.4428 ± 0.00058
w1 = 0.512	–	1.44745 ± 0.00059
w1 = 0.513	1.44705 ± 0.00058	–
w1 = 0.518	–	1.44985 ± 0.00059
w1 = 0.524	–	1.45195 ± 0.00059
w1 = 0.528	1.4523 ± 0.00059	–
w1 = 0.53	–	1.45405 ± 0.00059
w1 = 0.536	–	1.45645 ± 0.00059
w1 = 0.543	–	1.45915 ± 0.0006
w1 = 0.544	1.4581 ± 0.00059	–
w1 = 0.549	–	1.4615 ± 0.0006
w1 = 0.556	–	1.46395 ± 0.00058
w1 = 0.56	1.4648 ± 0.00059	–
w1 = 0.563	–	1.4666 ± 0.00058
w1 = 0.57	–	1.4694 ± 0.00059
w1 = 0.577	–	1.4721 ± 0.00058
w1 = 0.579	1.472 ± 0.00058	–
w1 = 0.585	–	1.4744 ± 0.00058
w1 = 0.598	1.4797 ± 0.00058	–
